Test results taken from patent US9302999B2, “Substituted triazoles as herbicides” (E. I. DU PONT DE NEMOURS AND COMPANY, priority 2012, dated 2016).

Key:
[1] = system: crabgrass, large (large crabgrass, Digitaria sanguinalis); test: Test A pre-/postemergence: crabgrass, large; assay type: in vivo
Method in brief: (§1)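 Injury was scored visually on a 0 (no effect) to 100 (complete control) scale versus untreated controls roughly ten days after treatment in the greenhouse. Compounds, formulated in surfactant-containing non-phytotoxic solvent, went on as soil-directed preemergence spray or postemergence to one- to two-leaf plants 2–10 cm tall.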

[2] = system: foxtail, giant (giant foxtail, Setaria faberii); test: Test A pre-/postemergence: foxtail, giant; assay type: in vivo
Method in brief: as §1

[3] = system: pigweed (Amaranthus retroflexus); test: Test A pre-/postemergence: pigweed; assay type: in vivo
Method in brief: as §1

[4] = system: wheat (Triticum aestivum); test: Test A pre-/postemergence: wheat; assay type: in vivo
Method in brief: as §1

wild oat (Avena fatua) = test: Test C pre-/postemergence: wild oat; assay type: in vivo; conditions: Postemergence
Method in brief: (§2)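 Preemergence on seeds in loam/sand, postemergence on 2–18 cm (1–4-leaf) plants in peat-based medium; compounds in non-phytotoxic solvent with surfactant. After 13–15 days in greenhouse, visual rating versus controls, 0 (no effect) to 100 (complete control).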

[5] = system: foxtail, giant (giant foxtail, Setaria faberii); test: Test C pre-/postemergence: foxtail, giant; assay type: in vivo
Method in brief: as §2

[6] = system: nutsedge, yellow (yellow nutsedge, Cyperus esculentus); test: Test C pre-/postemergence: nutsedge, yellow; assay type: in vivo
Method in brief: as §2

[7] = system: pigweed (Amaranthus retroflexus); test: Test C pre-/postemergence: pigweed; assay type: in vivo
Method in brief: as §2

soybean (Glycine max) = test: Test C pre-/postemergence: soybean; assay type: in vivo
Method in brief: as §2

Waterhemp = test: Test C postemergence: waterhemp; assay type: in vivo; conditions: 62 g ai/ha, scale 0 to 100 (0 no effect, 100 complete control)
Method in brief: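 Visual 0–100 injury score vs untreated controls (0 none, 100 complete control), taken 13–15 d after treatment. Postemergence spray on potted plants, 2–18 cm, 1–4 leaves; greenhouse.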

Oilseed Rape = test: Test C preemergence: oilseed rape; assay type: in vivo, Brassica napus; conditions: 125 g ai/ha, scale 0 to 100, 0 no effect, 100 complete control
[8] = Postemergence, 125 g ai/ha, 0 to 100 scale, 0 is no effect, 100 is complete control
[9] = Postemergence, 500 g ai/ha, 0 to 100 scale, 0 is no effect, 100 is complete control
[10] = Preemergence, 125 g ai/ha, 0 to 100 scale where 0 is no effect and 100 is complete control
[11] = Preemergence, 500 g ai/ha, 0 to 100 scale (0 no effect, 100 complete control)
[12] = 31 g ai/ha, scale 0 to 100 (0 no effect, 100 complete control)
[13] = 62 g ai/ha, scale 0 to 100 (0 no effect, 100 complete control)
[14] = 125 g ai/ha, scale 0 to 100, 0 no effect, 100 complete control
[15] = 250 g ai/ha, scale 0 to 100 (0 no effect, 100 complete control)
[16] = Postemergence, 31 g ai/ha, scale 0 to 100 (0 no effect, 100 complete control)
[17] = Postemergence, 62 g ai/ha, scale 0 to 100 (0 no effect, 100 complete control)
[18] = Postemergence, 125 g ai/ha, scale 0 to 100, 0 no effect, 100 complete control
[19] = Postemergence, 250 g ai/ha, scale 0 to 100
[20] = Preemergence, 31 g ai/ha, scale 0 (no effect) to 100 (complete control)
[21] = Preemergence, 62 g ai/ha, scale of 0 to 100, 0 is no effect, 100 is complete control
[22] = Preemergence, 125 g ai/ha, scale 0 to 100, 0 no effect, 100 complete control
[23] = Preemergence, 250 g ai/ha, scale 0 to 100, 0 no effect, 100 complete control
[24] = Postemergence, 250 g ai/ha, scale 0 to 100 (0 no effect, 100 complete control)

## CCCc1nn(-c2ccc(F)cc2F)nc1Oc1ccnc(C(F)(F)F)c1 [Compound 179]
[1]; [8]
  Plant response rating, Crabgrass, Large: 90
[1]; [9]
  Crabgrass, Large plant response rating: 90
[1]; [10]
  Plant response rating, Crabgrass, Large: 100
[1]; [11]
  Plant response rating, Crabgrass, Large: 100
[2]; [8]
  Plant response rating, Foxtail, Giant: 90
[2]; [9]
  Foxtail, Giant plant response rating: 90
[2]; [10]
  Plant response rating, Foxtail, Giant: 100
[2]; [11]
  Plant response rating, Foxtail, Giant: 100
[3]; [8]
  Plant response rating, Pigweed: 100
[3]; [9]
  Pigweed plant response rating: 100
[3]; [10]
  Plant response rating, Pigweed: 100
[3]; [11]
  Plant response rating, Pigweed: 100
[4]; [8]
  Plant response rating, Wheat: 30
[4]; [9]
  Wheat plant response rating: 40
[4]; [10]
  Plant response rating, Wheat: 20
[4]; [11]
  Plant response rating, Wheat: 50
Wild oat (Avena fatua); [12]
  Plant response rating, Oat, Wild: 10
Wild oat (Avena fatua); [13]
  Plant response rating, Oat, Wild: 20
Wild oat (Avena fatua); [14]
  Plant response rating, Oat, Wild: 35
Wild oat (Avena fatua); [15]
  Plant response rating, Oat, Wild: 50
[5]; [16]
  Plant response rating, Foxtail, Giant: 35
[5]; [17]
  Plant response rating, Foxtail, Giant: 40
[5]; [18]
  Plant response rating, Foxtail, Giant: 55
[5]; [19]
  Plant response rating, Foxtail, Giant: 80
[5]; [20]
  Plant response rating, Foxtail, Giant: 100
[5]; [21]
  Plant response rating, Foxtail, Giant: 100
[5]; [22]
  Plant response rating, Foxtail, Giant: 100
[5]; [23]
  Plant response rating, Foxtail, Giant: 100
[6]; [16]
  Plant response rating, Nutsedge, Yellow: 5
[6]; [17]
  Plant response rating, Nutsedge, Yellow: 5
[6]; [18]
  Plant response rating, Nutsedge, Yellow: 10
[6]; [24]
  Plant response rating, Nutsedge, Yellow: 10
[6]; [20]
  Plant response rating, Nutsedge, Yellow: 0
[6]; [21]
  Plant response rating, Nutsedge, Yellow: 0
[6]; [22]
  Plant response rating, Nutsedge, Yellow: 0
[6]; [23]
  Plant response rating, Nutsedge, Yellow: 5
[7]; [16]
  Plant response rating, Pigweed: 95
[7]; [17]
  Plant response rating, Pigweed: 98
[7]; [18]
  Plant response rating, Pigweed: 98
[7]; [24]
  Plant response rating, Pigweed: 100
[7]; [20]
  Plant response rating, Pigweed: 100
[7]; [21]
  Plant response rating, Pigweed: 100
[7]; [22]
  Plant response rating, Pigweed: 100
[7]; [23]
  Plant response rating, Pigweed: 100
Soybean (Glycine max); [16]
  Plant response rating, Soybean: 30
Soybean (Glycine max); [17]
  Plant response rating, Soybean: 35
Soybean (Glycine max); [18]
  Plant response rating, Soybean: 45
Soybean (Glycine max); [24]
  Plant response rating, Soybean: 45
Soybean (Glycine max); [20]
  Plant response rating, Soybean: 0
Soybean (Glycine max); [21]
  Plant response rating, Soybean: 10
Soybean (Glycine max); [22]
  Plant response rating, Soybean: 10
Soybean (Glycine max); [23]
  Plant response rating, Soybean: 25
Waterhemp
  Plant response rating, Waterhemp: 90
Oilseed Rape
  Plant response rating, Oilseed Rape: 100

## CCc1nn(-c2ccc(C(F)(F)F)c(F)c2)nc1Oc1ccnc(C(F)(F)F)c1 [Compound 183]
[1]; [8]
  Plant response rating, Crabgrass, Large: 90
[1]; [9]
  Crabgrass, Large plant response rating: 90
[1]; [10]
  Plant response rating, Crabgrass, Large: 100
[1]; [11]
  Plant response rating, Crabgrass, Large: 100
[2]; [8]
  Plant response rating, Foxtail, Giant: 90
[2]; [9]
  Foxtail, Giant plant response rating: 90
[2]; [10]
  Plant response rating, Foxtail, Giant: 100
[2]; [11]
  Plant response rating, Foxtail, Giant: 100
[3]; [8]
  Plant response rating, Pigweed: 100
[3]; [9]
  Pigweed plant response rating: 100
[3]; [10]
  Plant response rating, Pigweed: 100
[3]; [11]
  Plant response rating, Pigweed: 100
[4]; [8]
  Plant response rating, Wheat: 30
[4]; [9]
  Wheat plant response rating: 40
[4]; [10]
  Plant response rating, Wheat: 30
[4]; [11]
  Plant response rating, Wheat: 60
Wild oat (Avena fatua); [12]
  Plant response rating, Oat, Wild: 30
Wild oat (Avena fatua); [13]
  Plant response rating, Oat, Wild: 40
Wild oat (Avena fatua); [14]
  Plant response rating, Oat, Wild: 55
Wild oat (Avena fatua); [15]
  Plant response rating, Oat, Wild: 85
[5]; [16]
  Plant response rating, Foxtail, Giant: 45
[5]; [17]
  Plant response rating, Foxtail, Giant: 45
[5]; [18]
  Plant response rating, Foxtail, Giant: 65
[5]; [19]
  Plant response rating, Foxtail, Giant: 85
[5]; [20]
  Plant response rating, Foxtail, Giant: 100
[5]; [21]
  Plant response rating, Foxtail, Giant: 100
[5]; [22]
  Plant response rating, Foxtail, Giant: 100
[5]; [23]
  Plant response rating, Foxtail, Giant: 100
[6]; [16]
  Plant response rating, Nutsedge, Yellow: 10
[6]; [17]
  Plant response rating, Nutsedge, Yellow: 10
[6]; [18]
  Plant response rating, Nutsedge, Yellow: 10
[6]; [24]
  Plant response rating, Nutsedge, Yellow: 10
[6]; [20]
  Plant response rating, Nutsedge, Yellow: 0
[6]; [21]
  Plant response rating, Nutsedge, Yellow: 0
[6]; [22]
  Plant response rating, Nutsedge, Yellow: 5
[6]; [23]
  Plant response rating, Nutsedge, Yellow: 5
[7]; [16]
  Plant response rating, Pigweed: 100
[7]; [18]
  Plant response rating, Pigweed: 100
[7]; [24]
  Plant response rating, Pigweed: 100
[7]; [20]
  Plant response rating, Pigweed: 100
[7]; [21]
  Plant response rating, Pigweed: 100
[7]; [22]
  Plant response rating, Pigweed: 100
[7]; [23]
  Plant response rating, Pigweed: 100
Soybean (Glycine max); [16]
  Plant response rating, Soybean: 35
Soybean (Glycine max); [17]
  Plant response rating, Soybean: 55
Soybean (Glycine max); [18]
  Plant response rating, Soybean: 55
Soybean (Glycine max); [24]
  Plant response rating, Soybean: 90
Soybean (Glycine max); [20]
  Plant response rating, Soybean: 5
Soybean (Glycine max); [21]
  Plant response rating, Soybean: 5
Soybean (Glycine max); [22]
  Plant response rating, Soybean: 10
Soybean (Glycine max); [23]
  Plant response rating, Soybean: 30
Waterhemp
  Plant response rating, Waterhemp: 100
Oilseed Rape
  Plant response rating, Oilseed Rape: 100

## CCOc1nn(-c2ccc(Cl)cc2)nc1Cc1ccnc(C(F)(F)F)c1 [Compound 188]
[1]; [8]
  Plant response rating, Crabgrass, Large: 90
[1]; [9]
  Crabgrass, Large plant response rating: 90
[1]; [10]
  Plant response rating, Crabgrass, Large: 100
[1]; [11]
  Plant response rating, Crabgrass, Large: 100
[2]; [8]
  Plant response rating, Foxtail, Giant: 90
[2]; [9]
  Foxtail, Giant plant response rating: 90
[2]; [10]
  Plant response rating, Foxtail, Giant: 100
[2]; [11]
  Plant response rating, Foxtail, Giant: 100
[3]; [8]
  Plant response rating, Pigweed: 100
[3]; [9]
  Pigweed plant response rating: 100
[3]; [10]
  Plant response rating, Pigweed: 100
[3]; [11]
  Plant response rating, Pigweed: 100
[4]; [8]
  Plant response rating, Wheat: 70
[4]; [9]
  Wheat plant response rating: 70
[4]; [10]
  Plant response rating, Wheat: 30
[4]; [11]
  Plant response rating, Wheat: 50
Wild oat (Avena fatua); [12]
  Plant response rating, Oat, Wild: 45
Wild oat (Avena fatua); [13]
  Plant response rating, Oat, Wild: 60
Wild oat (Avena fatua); [14]
  Plant response rating, Oat, Wild: 60
Wild oat (Avena fatua); [15]
  Plant response rating, Oat, Wild: 90
[5]; [16]
  Plant response rating, Foxtail, Giant: 98
[5]; [17]
  Plant response rating, Foxtail, Giant: 98
[5]; [18]
  Plant response rating, Foxtail, Giant: 98
[5]; [19]
  Plant response rating, Foxtail, Giant: 100
[5]; [20]
  Plant response rating, Foxtail, Giant: 100
[5]; [21]
  Plant response rating, Foxtail, Giant: 100
[5]; [22]
  Plant response rating, Foxtail, Giant: 100
[5]; [23]
  Plant response rating, Foxtail, Giant: 100
[6]; [16]
  Plant response rating, Nutsedge, Yellow: 10
[6]; [17]
  Plant response rating, Nutsedge, Yellow: 10
[6]; [18]
  Plant response rating, Nutsedge, Yellow: 10
[6]; [24]
  Plant response rating, Nutsedge, Yellow: 15
[6]; [20]
  Plant response rating, Nutsedge, Yellow: 5
[6]; [21]
  Plant response rating, Nutsedge, Yellow: 5
[6]; [22]
  Plant response rating, Nutsedge, Yellow: 5
[6]; [23]
  Plant response rating, Nutsedge, Yellow: 20
[7]; [16]
  Plant response rating, Pigweed: 95
[7]; [17]
  Plant response rating, Pigweed: 95
[7]; [18]
  Plant response rating, Pigweed: 98
[7]; [24]
  Plant response rating, Pigweed: 100
[7]; [20]
  Plant response rating, Pigweed: 100
[7]; [21]
  Plant response rating, Pigweed: 100
[7]; [22]
  Plant response rating, Pigweed: 100
[7]; [23]
  Plant response rating, Pigweed: 100
Soybean (Glycine max); [16]
  Plant response rating, Soybean: 40
Soybean (Glycine max); [17]
  Plant response rating, Soybean: 50
Soybean (Glycine max); [18]
  Plant response rating, Soybean: 50
Soybean (Glycine max); [24]
  Plant response rating, Soybean: 55
Soybean (Glycine max); [20]
  Plant response rating, Soybean: 5
Soybean (Glycine max); [21]
  Plant response rating, Soybean: 20
Soybean (Glycine max); [23]
  Plant response rating, Soybean: 65
Waterhemp
  Plant response rating, Waterhemp: 100
Oilseed Rape
  Plant response rating, Oilseed Rape: 100
